In patent US8936809B2, “Method for treating prostate diseases based on local delivery of active substances” (Lidds AB, priority 2005, dated 2015):
Where “and” joins values, the source holds several entries; their conditions need not be identical. Identical values can stand only once. Like-named read-outs stand apart in the source and are kept apart here.

Assays:
in vivo = settings: male, Labrador, dog, iv, 25 mg
Protocol: (§1) First, four male dogs (H1-H4) (Labrador, approx. 1 year of age and weight 30 kg) were given 2-hydroxy-flutamide (25 mg) by single bolus doses intravenously during 30 seconds. The intravenous solution base was sterile saline […], sterile polyethylene glycol 400 46% and ethanol (95%) 6%. Blood samples of 1.0 ml were taken from the Cephalic vein at 5, 10, 15, 30, 60, 90, 120, 240, 360, and 600 minutes. The blood samples were immediately centrifuged at 3000 rpm and the plasma samples were frozen at −80° C. until analysis.
Quantification of 2-hydroxy-flutamide in plasma and tissue samples was done by HPLC-MS. HPLC was performed with a Surveyor HPLC system equipped with a CTC Pal autosampler. The analytical column was a Zorbax Eclipse XDB-18 (2.1 mm×50 mm, particle size 5 μm) connected to a guard column. The eluent consisted of solvent A (aqueous formic acid 0.1%) and B (acetonitrile), a linear gradient from 25 to 90% of solvent B in 5 minutes was applied. The proportion of solvent B was then lowered to 25% in one minute and was allowed to equilibrate at this level for two minutes prior to the next injection. The volumetric flow-rate was 200 μL/min and the injection volume was 20 μL. The HPLC column outlet was coupled to a TSQ Quantum Ultra tandem triple quadrupole mass spectrometer (ThermoFinnigan, San José, Calif., USA). The transition of m/z 291 [M-H]^−→205 was used for 2-hydroxy-flutamide and m/z 316 [M-H]^−→273 was used for nilutamide (internal standard). The limit of quantification was 0.50 ng/ml in dog plasma. Calibration samples were prepared by spiking blank plasma samples with 100 μL of solutions of 2-hydroxy-flutamide at different concentrations. […] The accuracies of the analytical runs were calculated as 100*(mean determined concentration in QC sample/spiked concentration) % and the intra-run precisions were calculated as the relative standard deviation (RSD %) of the determined concentrations at each QC level. […]

[1] = Observation of behaviour and side effects (diarrhea) in dogs (Example 1); format: in vivo, dog
Protocol: as §1
One week later, the same animals were given 2-hydroxy-flutamide locally by a controlled release pharmaceutical composition in the prostate tissue. The 2-hydroxy- flutamide doses were 0 mg (H1), 30 mg (H3), 60 mg (H2) and 120 mg (H4), and each dog was given one implant only. Where H1 was a control given the composition without 2-hydroxy-flutamide. All doses of 2-hydroxy-flutamide were given after an overnight fast. Dog 1 (H1) and dog 3 (H3) were given an enema preoperatively. After the local prostate application of the pharmaceutical composition through rectum, an antibiotic (Quinolon) was administered in normal doses.

[2] = Plasma pharmacokinetics and tissue level after controlled release implant into bulbourethral gland of male sheep (Example 2); format: in vivo
Protocol: The major purpose of the present animal study was to examine the pharmacokinetics, efficacy and safety of the novel local drug delivery system with 2-hydroxyflutamide, a selective antagonist to the androgen receptor (AR). A ceramic based drug delivery product was administered into an androgen dependent tissue (the bulbourethral gland) in male sheep. In total 11 male sheep were divided into two separate groups. One group was given 2-hydroxyflutamide by the local implant delivery system as a single administration into the bulbourethral gland and was monitored during 2 months. Each sheep in this treatment group received the prostate implant by a single dose of 250 mg. The other group only received ceramic formulation without any active drug substance.
The implant drug delivery system was inserted locally, via rectum, into the androgen dependent tissue (bulbourethral gland) through sterile needles during rectal ultrasound guidance. The animals were during anaesthesia throughout the insertion procedure. The sterile ceramic based implant had two major components: calcium sulphate (CaSO4-0.5H2O) and 2-hydroxyflutamide. The composition of the formulation was 250 mg 2-hydroxyflutamide+2.25 g calcium sulphate di-hydrate+5.0 g calcium sulphate hemi-hydrate and it was mixed with solution: 3.5 ml of water solution (with 1% acetic acid and 1% methyl cellulose). […] The amount injected into each lobe of the androgen sensitive bulbourethral gland was about 2.0-3.0 ml.
Quantification of 2-hydroxy-flutamide in plasma samples was done by HPLC-MS. HPLC was performed with a Surveyor HPLC system equipped with a CTC Pal autosampler. The analytical column was a Zorbax Eclipse XDB-18 (2.1 mm×50 mm, particle size 5 μm) connected to a guard column. The calibration curves were constructed by linear regression of the peak area ratio of 2-hydroxy-flutamide and internal standard as a function of 2-hydroxy-flutamide concentrations. The method performance was studied using quality control (QC) samples, which were prepared by spiking blank plasma with 2-hydroxy-flutamide.
Sheep plasma (unknown, QC or calibration sample) at a volume of 100 μL was mixed with 100 μL of internal standard solution (nilutamide at 0.025 μg/mL) and 250 μL of acetonitrile. A subsequent vortex mix was performed for 20 seconds followed by a centrifugation for 10 minutes. […] of the supernatant was transferred to a clean test tube and evaporated to dryness at 50° C. in a gentle stream of nitrogen. The residue was reconstituted in 100 μL aqueous formic acid (0.1%) and transferred to a vial for LC-MS/MS analysis.
The formulation was successfully administered in 11 male sheep. Based on the plasma exposure profile the pharmacokinetic variables were calculated with standard methods (Table 4).

[3] = as above; format: in vivo; settings: three moths after the injection
[4] = male sheep plasma, 250 mg implant into bulbourethral gland, individual animals

- Cmax (in vivo; Cmax): 835 ng/mL
- half-life (in vivo; elimination half-life): 1.75 ± 0.2 h
- half-life (in vivo; t1/2): 1.9 h
- Tmax ([2]; male, sheep, plasma, 250 mg, male sheep, 250 mg implant into bulbourethral gland, Mean of seven sheep): 9 h
- AUC ([2]; male, sheep, plasma, 250 mg, male sheep, 250 mg implant into bulbourethral gland, Mean of seven sheep, read-out: AUC): 3770 ng·h/mL
- Cmax ([2]; male, sheep, plasma, 250 mg, male sheep, 250 mg implant into bulbourethral gland, Mean of seven sheep, read-out: Cmax): 42 ng/mL
- half-life ([2]; male, sheep, plasma, 250 mg, male sheep, 250 mg implant into bulbourethral gland, Mean of seven sheep, read-out: t½ (converted)): 146 h
- half-life ([2]; male, sheep, plasma, other: local implant into the bulbourethral gland via rectum, 250 mg, male sheep, 250 mg controlled release implant, read-out: elimination half-life (converted)): ~146 h
- levels in prostate gland [3]: possible to quantify
Structure (SMILES): CC(C)(O)C(=O)Nc1ccc([N+](=O)[O-])c(C(F)(F)F)c1 [2-hydroxy-flutamide]
- diarrhea ([1]; after intravenous administration 25 mg): all dogs suffered from diarrhea
- diarrhea ([1]; after local administration of the controlled release composition in the prostate tissue): not observed in any animals
- AUC [2, 4]: 3725 ng·h/mL and 3390 ng·h/mL and 3755 ng·h/mL and 1855 ng·h/mL and 4948 ng·h/mL and 4436 ng·h/mL and 4287 ng·h/mL
- Cmax [2, 4]: 84 ng/mL and 35 ng/mL and 19.8 ng/mL and 16.3 ng/mL and 34 ng/mL and 31 ng/mL and 26 ng/mL
- t½ [2, 4]: 253 h and 117 h and 67 h and 168 h and 119 h and 140 h and 159 h
